These molecules were tested against recombinant human SYK (GST-hSYK fusion protein) (Homo sapiens, UniProt P43405) (assay: biochemical). Settings: rhSYK Activity (IC50), recombinant human GST-SYK 5 pM, ATP 25 μM, biotinylated substrate peptide 250 nM, HTRF, 10-dose titration.
Description: Homogeneous Time-Resolved Fluorescence (HTRF) Assay for the Recombinant Human SYK Enzyme:

IC50 | SMILES
< 100 nM | Cc1cc(Nc2nccc(C(F)(F)F)n2)cc(-c2cnc(C(=O)O)s2)c1 [Example 86, 5-(3-methyl-5-{[4-(trifluoromethyl)pyrimidin-2-yl]amino}phenyl)-1,3-thiazole-2-carboxylic acid]
< 100 nM | Cc1cc(Nc2nccc(C(F)(F)F)n2)cc(-c2cnc(C(=O)NC[C@@H](O)CO)s2)c1 [Example 87, N-[(2R)-2,3-dihydroxypropyl]-5-(3-methyl-5-{[4-(trifluoromethyl)pyrimidin-2-yl]amino}-phenyl)-1,3-thiazole-2-carboxamide]
100 to 1000 nM | Cc1cc(Nc2nccc(C(F)(F)F)n2)cc(-c2cnc(C(=O)NC(C)C)s2)c1 [Example 87A-1]
100 to 1000 nM | Cc1cc(Nc2nccc(C(F)(F)F)n2)cc(-c2cnc(C(N)=O)s2)c1 [Example 87A-2]
< 100 nM | Cc1cc(Nc2nccc(C(F)(F)F)n2)cc(-c2cnc(C(=O)N(C)CCO)s2)c1 [Example 87A-6]
< 100 nM | Cc1cc(Nc2nccc(C(F)(F)F)n2)cc(-c2cnc(C(=O)NCC(C)O)s2)c1 (stereo not shown) [Example 87A-7]
< 100 nM | Cc1cc(Nc2nccc(C(F)(F)F)n2)cc(-c2cnc(C(=O)NC(C)CO)s2)c1 (stereo not shown) [Example 87A-8]
< 100 nM | Cc1cc(Nc2nccc(C(F)(F)F)n2)cc(-c2cnc(C(=O)NC3(CO)CC3)s2)c1 [Example 87A-9]
< 100 nM | CCC(CO)NC(=O)c1ncc(-c2cc(C)cc(Nc3nccc(C(F)(F)F)n3)c2)s1 (stereo not shown) [Example 87A-10]
< 100 nM | Cc1cc(Nc2nccc(C(F)(F)F)n2)cc(-c2cnc(C(=O)NCC(C)(C)O)s2)c1 [Example 87A-11]
1000 to 10000 nM | Cc1cc(Nc2nccc(C(F)(F)F)n2)cc(-c2cnc(C(=O)NC3(CO)CCCC3)s2)c1 [Example 87A-16]
< 100 nM | C=C(F)CNC(=O)c1ncc(-c2cc(C)cc(Nc3nccc(C(F)(F)F)n3)c2)s1 [Example 87A-19]
< 100 nM | Cc1cc(Nc2nccc(C(F)(F)F)n2)cc(-c2cnc(C(=O)NCC3COCCO3)s2)c1 (stereo not shown) [Example 87A-20]
100 to 1000 nM | CCN(C)C(=O)c1ncc(-c2cc(C)cc(Nc3nccc(C(F)(F)F)n3)c2)s1 [Example 87A-28]
< 100 nM | Cc1cc(Nc2nccc(C(F)(F)F)n2)cc(-c2cnc(C(=O)NCCC(=O)O)s2)c1 [Example 87A-35]
< 100 nM | Cc1cc(Nc2nccc(C(F)(F)F)n2)cc(-c2cnc(C(=O)NC3CCC(C(=O)O)CC3)s2)c1 (stereo not shown) [Example 87A-37]
100 to 1000 nM | Cc1cc(Nc2nccc(C(F)(F)F)n2)cc(-c2cnc(C(=O)N3CCCC3)s2)c1 [Example 87B-1]
100 to 1000 nM | Cc1cc(Nc2nccc(C(F)(F)F)n2)cc(-c2cnc(C(=O)N3CCN(C)CC3)s2)c1 [Example 87B-3]

IC50 | SMILES
< 100 nM | Cc1cc(Nc2nccc(C(F)(F)F)n2)cc(-c2cnc(C(=O)N3CCN(C)C(=O)C3)s2)c1 [Example 87B-4]
100 to 1000 nM | Cc1cc(Nc2nccc(C(F)(F)F)n2)cc(-c2cnc(C(=O)N3CCN(C)C(=O)C3C)s2)c1 (stereo not shown) [Example 87B-5]
< 100 nM | Cc1cc(Nc2nccc(C(F)(F)F)n2)cc(-c2cnc(C(=O)N3CCn4cccc4C3)s2)c1 [Example 87B-6]
100 to 1000 nM | CC(=O)N1CCN(C(=O)c2ncc(-c3cc(C)cc(Nc4nccc(C(F)(F)F)n4)c3)s2)CC1 [Example 87B-7]
< 100 nM | Cc1cc(Nc2nccc(C(F)(F)F)n2)cc(-c2cnc(C(=O)N3CCn4ccnc4C3)s2)c1 [Example 87B-9]
< 100 nM | Cc1cc(Nc2nccc(C(F)(F)F)n2)cc(-c2cnc(C(=O)N3CC[C@@H](CO)C3)s2)c1 [Example 87B-11]
< 100 nM | Cc1cc(Nc2nccc(C(F)(F)F)n2)cc(-c2cnc(C(=O)N3CCC(C)(O)C3)s2)c1 (stereo not shown) [Example 87B-12]
< 100 nM | Cc1cc(Nc2nccc(C(F)(F)F)n2)cc(-c2cnc(C(=O)N3CCC[S+]([O-])CC3)s2)c1 (stereo not shown) [Example 87B-13]
100 to 1000 nM | Cc1cc(Nc2nccc(C(F)(F)F)n2)cc(-c2cnc(C(=O)N3CCS(=O)(=O)CC3)s2)c1 [Example 87B-14]
1000 to 10000 nM | Cc1cc(Nc2nccc(C(F)(F)F)n2)cc(-c2cnc(C(=O)N3CCN(CC(F)(F)F)CC3)s2)c1 [Example 87B-15]
< 100 nM | Cc1cc(Nc2nccc(C(F)(F)F)n2)cc(-c2cnc(C(=O)N3CC[C@H](CO)C3)s2)c1 [Example 87B-16]
< 100 nM | Cc1cc(Nc2nccc(C(F)(F)F)n2)cc(-c2cnc(C(=O)N3CCC(O)C3)s2)c1 (stereo not shown) [Example 87B-17]
< 100 nM | Cc1cc(Nc2nccc(C(F)(F)F)n2)cc(-c2cnc(C(=O)N3C[C@@H](O)[C@@H](O)C3)s2)c1 [Example 87B-18]
< 100 nM | Cc1cc(Nc2nccc(C(F)(F)F)n2)cc(-c2cnc(C(=O)N3CCC(C(=O)O)CC3)s2)c1 [Example 87B-19]
< 100 nM | Cc1cc(Nc2nccc(C(F)(F)F)n2)cc(-c2cnc(C(=O)N3CC(O)CC3C(=O)O)s2)c1 (stereo not shown) [Example 87B-20]
< 100 nM | COC(=O)C1CC(O)CN1C(=O)c1ncc(-c2cc(C)cc(Nc3nccc(C(F)(F)F)n3)c2)s1 (stereo not shown) [Example 87B-21]
< 100 nM | Cc1cc(Nc2nccc(C(F)(F)F)n2)cc(-c2cnc(C(=O)N3CCC(O)(C(=O)O)CC3)s2)c1 [Example 87B-22]

The next lines start with the molecule.

SMILES | IC50
Cc1cc(Nc2nccc(C(F)(F)F)n2)cc(-c2cnc(C(=O)NCCS(C)(=O)=O)s2)c1 [Example 87A-5] | < 100 nM
Cc1cc(Nc2nccc(C(F)(F)F)n2)cc(-c2cnc(C(=O)NC(C)(CO)CO)s2)c1 [Example 87A-12] | < 100 nM
Cc1cc(Nc2nccc(C(F)(F)F)n2)cc(-c2cnc(C(=O)NCc3cnn(C)c3)s2)c1 [Example 87A-13] | 100 to 1000 nM
Cc1cc(Nc2nccc(C(F)(F)F)n2)cc(-c2cnc(C(=O)NCc3cncn3C)s2)c1 [Example 87A-14] | < 100 nM
Cc1cc(Nc2nccc(C(F)(F)F)n2)cc(-c2cnc(C(=O)NCCc3c[nH]cn3)s2)c1 [Example 87A-15] | < 100 nM
Cc1cc(Nc2nccc(C(F)(F)F)n2)cc(-c2cnc(C(=O)N(C)CCC3OCCO3)s2)c1 [Example 87A-17] | 100 to 1000 nM
Cc1cc(Nc2nccc(C(F)(F)F)n2)cc(-c2cnc(C(=O)N(C)Cc3nccn3C)s2)c1 [Example 87A-21] | < 100 nM
Cc1cc(Nc2nccc(C(F)(F)F)n2)cc(-c2cnc(C(=O)N(C)CC3COCCO3)s2)c1 (stereo not shown) [Example 87A-23] | 100 to 1000 nM
COCC(O)CNC(=O)c1ncc(-c2cc(C)cc(Nc3nccc(C(F)(F)F)n3)c2)s1 (stereo not shown) [Example 87A-24] | < 100 nM
Cc1cc(Nc2nccc(C(F)(F)F)n2)cc(-c2cnc(C(=O)NCc3ncc[nH]3)s2)c1 [Example 87A-25] | < 100 nM
Cc1cc(Nc2nccc(C(F)(F)F)n2)cc(-c2cnc(C(=O)N(C)CC(O)CO)s2)c1 (stereo not shown) [Example 87A-26] | < 100 nM
Cc1cc(Nc2nccc(C(F)(F)F)n2)cc(-c2cnc(C(=O)N(C)CCS(C)(=O)=O)s2)c1 [Example 87A-27] | 1000 to 10000 nM
Cc1cc(Nc2nccc(C(F)(F)F)n2)cc(-c2cnc(C(=O)N(CCO)CCO)s2)c1 [Example 87A-29] | < 100 nM
CNC(=O)CN(C)C(=O)c1ncc(-c2cc(C)cc(Nc3nccc(C(F)(F)F)n3)c2)s1 [Example 87A-30] | < 100 nM
Cc1cc(Nc2nccc(C(F)(F)F)n2)cc(-c2cnc(C(=O)N[C@H](c3ccccc3)[C@@H](O)C(=O)O)s2)c1 [Example 87A-32] | < 100 nM
Cc1cc(Nc2nccc(C(F)(F)F)n2)cc(-c2cnc(C(=O)NC(CO)(CO)CO)s2)c1 [Example 87A-34] | < 100 nM
Cc1cc(Nc2nccc(C(F)(F)F)n2)cc(-c2cnc(C(=O)NCCCN(CCO)CCO)s2)c1 [Example 87A-36] | < 100 nM
NC(=O)c1ncc(-c2cccc(Nc3nccc(C(F)(F)F)n3)c2)s1 [Example 87A-38] | < 100 nM

SMILES | IC50
Cc1cc(Nc2nccc(C(F)(F)F)n2)cc(-c2cnc(CNCC3CCC(=O)N3)s2)c1 (stereo not shown) [Example 88, 5-[({[5-(3-methyl-5-{[4-(trifluoromethyl)pyrimidin-2-yl]amino}phenyl)-1,3-thiazol-2-yl]-methyl}amino)methyl]pyrrolidin-2-one] | < 100 nM
Cc1cc(Nc2nccc(C(F)(F)F)n2)cc(-c2cnc(CNc3cncnc3)s2)c1 [Example 88A-1] | < 100 nM
Cc1cc(Nc2nccc(C(F)(F)F)n2)cc(-c2cnc(CNCC(O)C(F)F)s2)c1 (stereo not shown) [Example 88A-2] | < 100 nM
Cc1cc(Nc2nccc(C(F)(F)F)n2)cc(-c2cnc(CNCc3n[nH]c(=O)[nH]3)s2)c1 [Example 88A-3] | < 100 nM
Cc1cc(Nc2nccc(C(F)(F)F)n2)cc(-c2cnc(CNC3CCS(=O)(=O)C3)s2)c1 (stereo not shown) [Example 88A-5] | < 100 nM
Cc1cc(Nc2nccc(C(F)(F)F)n2)cc(-c2cnc(CN(C)C(C3CC3)C3CC3)s2)c1 [Example 88A-7] | < 100 nM
C=C(F)CNCc1ncc(-c2cc(C)cc(Nc3nccc(C(F)(F)F)n3)c2)s1 [Example 88A-8] | < 100 nM
Cc1cc(Nc2nccc(C(F)(F)F)n2)cc(-c2cnc(CNC(C)c3ccccn3)s2)c1 (stereo not shown) [Example 88A-9] | < 100 nM
Cc1cc(Nc2nccc(C(F)(F)F)n2)cc(-c2cnc(CNc3cn(C(C)C)nn3)s2)c1 [Example 88A-10] | < 100 nM
Cc1cc(Nc2nccc(C(F)(F)F)n2)cc(-c2cnc(CN(C)CCO)s2)c1 [Example 88A-12] | < 100 nM
Cc1cc(Nc2nccc(C(F)(F)F)n2)cc(-c2cnc(CN(CCO)CCO)s2)c1 [Example 88A-13] | < 100 nM
Cc1cc(Nc2nccc(C(F)(F)F)n2)cc(-c2cnc(CNC(C)(CO)CO)s2)c1 [Example 88A-14] | < 100 nM
Cc1cc(Nc2nccc(C(F)(F)F)n2)cc(-c2cnc(CNC(C)CO)s2)c1 (stereo not shown) [Example 88A-15] | < 100 nM
CCC(CO)NCc1ncc(-c2cc(C)cc(Nc3nccc(C(F)(F)F)n3)c2)s1 (stereo not shown) [Example 88A-16] | < 100 nM
Cc1cc(Nc2nccc(C(F)(F)F)n2)cc(-c2cnc(CNCC(C)O)s2)c1 (stereo not shown) [Example 88A-17] | < 100 nM
Cc1cc(Nc2nccc(C(F)(F)F)n2)cc(-c2cnc(CNCCO)s2)c1 [Example 88A-18] | < 100 nM
Cc1cc(Nc2nccc(C(F)(F)F)n2)cc(-c2cnc(CNCCCO)s2)c1 [Example 88A-19] | < 100 nM
